{"source": "patent US20080249144A1", "about": "“Preventive or Therapeutic Agent for Chronic Inflammatory Lung Disease” (KAKEN PHARMACEUITICAL CO., LTD., priority 2004, published 2008)", "key": {"[1]": {"system": "PPE-induced pulmonary emphysema model", "experiment": "PPE-induced pulmonary emphysema model in mice", "type": "in vivo", "procedure": "Eight-week old C57BL strain mice were anaesthetized with isoflurane. PPE (25 μg) was administered once to the lung through a cannula inserted into the trachea through the pharyngolarynx to induce a pulmonary damage. To a non-PPE administration group (normal group), saline was administered instead. In a preventive administration experiment (hereinafter referred to as a “preventive experiment”) of KP-496, drug effect was evaluated on inflammatory cells in BALF 2 days after PPE administration and by histopathological examination of the lung after 10 days. In a therapeutic administration experiment of KP-496 (hereinafter referred to as a “therapeutic experiment”), the drug effect was evaluated by histo-pathological examination of the lung and weight of the organs 14 days after PPE administration.\nThe medicament administration period was set from the PPE administration date to the day before autopsy in the preventive experiment and set from a predetermined day (KP-496A group: PPE administration date, KP-496B group: 3 days after PPE administration date, KP-496C group: 7 days after PPE administration date) to the day before autopsy in the therapeutic experiment. Inhalation administration of KP-496 was performed in the same manner as in Example 2. Furthermore, the normal group and the control group were allowed to spontaneously inhale saline, instead. A medicament for use in comparison, prednisolone, was orally administered in a dose of 5 mg/kg twice a day. A group consisted of 10 animals.\nThe animals were anaesthetized with pentobarbital and killed by exsanguination. Immediately after that, BAL of the right and left lungs was performed with 2 ml of saline. In the same manner as in Example 2, the total number of cells and the number of cells according to the cell type in the BALE were determined.\nThe lung was excised out from the animal killed by exsanguination in the same manner as in the above, the weight of the lung was measured. The lung was fixed in 10 vol % neutral buffered formalin solution. A pathological tissue sample was prepared in accordance in a general way. The degree of the damage of the lung tissue observed was evaluated by scoring in the same manner as in Example 2. Furthermore, the average of alveolar-space area of the entire lung tissue sample was computationally measured with image-processing software.\nThe average value and standard deviation of each group were calculated. Comparison between the normal group and the control group was performed by the Levene's test for equal variance and then, the t-test was performed depending on the results. To compare the control group and test substance administration groups, equal variance was first confirmed by the Levene's test and then multiple comparisons were performed in accordance with the Dunnett's test. Note that evaluation parameters with unequal variance and the damage score of the lung tissue were analyzed by nonparametric Mann-Whitney test. The significance level employed was […]."}, "[2]": {"system": "vanadium pentoxide-induced bronchitis model", "experiment": "Vanadium pentoxide-induced bronchitis model in mice", "type": "in vivo", "conditions": "7 days after vanadium pentoxide; compared with control", "procedure": "Seven-week old C57BL strain male mice were used. The mouse was anaesthetized with isoflurane. Vanadium pentoxide (20 μg) was administered once to the lung through a cannula inserted into the trachea through the pharyngolarynx to induce pathology. To a non-vanadium pentoxide administration group (normal group), saline was administered, instead. KP-496 was administered by inhalation twice a day in the period from the vanadium pentoxide administration date to the day before autopsy, in the same manner as in Example 2. Furthermore, the normal group and the control group were allowed to spontaneously inhale saline in the same manner. A medicament for use in comparison, prednisolone, was orally administered at a dose of 5 mg/kg twice a day in the period from the vanadium pentoxide administration date to the day before autopsy. Note that the normal group consisted of 6 animals and the other group consisted of 10 animals. Each of the mice was anaesthetized with pentobarbital 7 days after vanadium pentoxide administration and killed by bloodletting from the abdominal aorta. The lung was excised out and fixed in 10 vol % neutral buffered formalin solution. […] The obtained value was divided by the circumferential length of the bronchial lumen (obtained in mucosal basal membrane) and the quotient was expressed as a mucus producing region area per millimeter of the bronchus. […]"}, "[3]": {"conditions": "2 days after PPE, compared to control group"}, "[4]": {"conditions": "preventive experiment, 10 days after PPE"}}, "data": [{"compound": "CC(C)c1csc(COc2cccc(CN(CCCCNS(=O)(=O)c3ccc(Cl)cc3)S(=O)(=O)c3ccccc3C(=O)O)c2)n1", "note": "[KP-496, 2-{N-[4-(4-chlorobenzenesulfonylamino)butyl]-N-{3-[(4-isopropyl-2-thiazolyl)methoxy]benzyl}}sulfamoylbenzoic acid]", "values": [{"measurement": "total number of cells in BALF", "setting": "[1]; 2 days after PPE administration, preventive experiment", "result": "3.1±0.8 ×10^5 cells"}, {"measurement": "number of eosinophils in BALF", "setting": "[1]; [3]", "result": "lower values than in the control group"}, {"measurement": "number of macrophages in BALF", "setting": "[1]; [3]", "result": "significantly decreased"}, {"measurement": "number of neutrophils in BALF", "setting": "[1]; [3]", "result": "significantly decreased"}, {"measurement": "weights of the organs (liver, spleen and thymus gland)", "setting": "[1]; mouse, in vivo", "result": "No effect was observed"}, {"measurement": "emphysema-like pathology of the lung (histopathology)", "setting": "[1]; [4]", "result": "the pathologic lesion was localized and mild"}, {"measurement": "increase in lung weight", "setting": "[1]; [4]", "result": "significantly suppressed"}, {"measurement": "damage score of the lung", "setting": "[1]; preventive experiment, 10 days after PPE, compared with control group", "result": "significantly decreased"}, {"measurement": "increase of the average of the alveolar-space area", "setting": "[1]; preventive experiment, compared to control", "result": "significantly suppressed"}, {"measurement": "lung weight", "setting": "[1]; therapeutic experiment, 14 days after PPE, despite difference of the administration initiation date", "result": "lower values than the control group"}, {"measurement": "damage score of the lung", "setting": "[1]; therapeutic experiment, 14 days after PPE, each of the groups (start day 0, 3 or 7)", "result": "significantly decreased"}, {"measurement": "lung weight, difference to control group", "setting": "[1]; therapeutic experiment, administration started from PPE administration date", "result": "a significant difference was observed"}, {"measurement": "increase of the average of the alveolar-space area", "setting": "[1]; therapeutic experiment, each of the groups (start day 0, 3 or 7)", "result": "significantly suppressed"}, {"measurement": "increase of PAS positive area (mucus producing region of intrapulmonary bronchial epithelium)", "setting": "[2]", "result": "significantly suppressed"}]}]}
